{"source": "patent US20250288681A1", "about": "“SOLID COMPOSITIONS COMPRISING A GLUCOKINASE ACTIVATOR AND METHODS OF MAKING AND USING THE SAME” (vTv Therapeutics LLC, priority 2013, published 2025)", "assay": "stability of solid form (statement only)", "format": "physicochemical", "settings": "qualitative statement, no data"}
{"smiles": "CCCO[C@H]1CC[C@H](N(C(=O)Nc2ncc(SCC(=O)O)s2)C2CCCCC2)CC1", "note": "[Form A, {2-[3-cyclohexyl-3-(trans-4-propoxy-cyclohexyl)-ureido]-thiazol-5-ylsulfanyl}-acetic acid]", "values": [{"measurement": "stability", "value": "particularly stable"}]}
{"smiles": "CCCO[C@H]1CC[C@H](N(C(=O)Nc2ncc(SCC(=O)O)s2)C2CCCCC2)CC1", "note": "[UD1-FA, {2-[3-cyclohexyl-3-(trans-4-propoxy-cyclohexyl)-ureido]-thiazol-5-ylsulfanyl}-acetic acid]", "values": [{"measurement": "stability", "value": "greater stability relative to some of its pharmaceutically acceptable salts"}]}
